Test results: ChEMBL document CHEMBL1201862, “PubChem BioAssay data set” (2004)
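Cultured in 96-well plates, cells were exposed to test compound for 48 hours across five concentrations. GI50 = concentration required for 50% inhibition of growth.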 Calls of active or inactive are those of the source. Cut-off read from the data, not from the text of the source: active = GI50 up to about 1.1 µM and inactive = higher.

How the values were obtained:
Assay in all cases: NCI anticancer screen, dose series, 48 h
[1] = test system: SK-MEL-28
[2] = test system: HT-29
[3] = test system: M19-MEL
[4] = test system: OVCAR-8
[5] = test system: HOP-92
[6] = test system: SN12C
[7] = test system: SW-620
[8] = test system: A549
[9] = test system: RXF 393
[10] = test system: CCRF-CEM
[11] = test system: HCT-116
[12] = test system: XF498
[13] = test system: Malme-3M
[14] = test system: ACHN
[15] = test system: SK-MEL-2
[16] = test system: SK-OV-3
[17] = test system: DMS-273
[18] = test system: NCI-H460
[19] = test system: SNB-78
[20] = test system: SK-MEL-5
[21] = test system: 786-0
[22] = test system: HCC 2998
[23] = test system: IGROV-1
[24] = test system: A498
[25] = test system: SNB-75
[26] = test system: SF-295
[27] = test system: HCT-15
[28] = test system: RXF 631
[29] = test system: TK-10
[30] = test system: HOP-62
[31] = test system: SNB-19
[32] = test system: EKVX
[33] = test system: LXFL 529
[34] = test system: OVCAR-5
[35] = test system: UACC-62
[36] = test system: KM-20L2
[37] = test system: DLD-1
[38] = test system: OVCAR-4
[39] = test system: COLO 205
[40] = test system: SF-539
[41] = test system: UACC-257
[42] = test system: HOP-18
[43] = test system: DMS-114
[44] = test system: U-251
[45] = test system: NCI-H23
[46] = test system: KM12
[47] = test system: CAKI-1
[48] = test system: M14
[49] = test system: K562
[50] = test system: HL-60
[51] = test system: MOLT-4
[52] = test system: SF-268
[53] = test system: OVCAR-3
[54] = test system: RPMI-8226

## COC(=O)[C@@]12CC(C(C)C)[C@H]3CC(C(=O)C=C1OC)[C@H]32 (stereo partly drawn)
[1]
  GI50: > 100 µM (inactive)
[2]
  GI50: > 100 µM (inactive)
[3]
  GI50: > 100 µM (inactive)
[4]
  GI50: > 100 µM (inactive)
[5]
  GI50: > 100 µM (inactive)
[6]
  GI50: > 100 µM (inactive)
[7]
  GI50: > 100 µM (inactive)
[8]
  GI50: > 100 µM (inactive)
[9]
  GI50: > 100 µM (inactive)
[10]
  GI50: 47.5 µM (inactive)
[11]
  GI50: > 100 µM (inactive)
[12]
  GI50: > 100 µM (inactive)
[13]
  GI50: > 100 µM (inactive)
[14]
  GI50: > 100 µM (inactive)
[15]
  GI50: > 100 µM (inactive)
[16]
  GI50: > 100 µM (inactive)
[17]
  GI50: > 100 µM (inactive)
[18]
  GI50: > 100 µM (inactive)
[19]
  GI50: > 100 µM (inactive)
[20]
  GI50: > 100 µM (inactive)
[21]
  GI50: > 100 µM (inactive)
[22]
  GI50: > 100 µM (inactive)
[23]
  GI50: > 100 µM (inactive)
[24]
  GI50: > 100 µM (inactive)
[25]
  GI50: > 100 µM (inactive)
[26]
  GI50: > 100 µM (inactive)
[27]
  GI50: > 100 µM
[28]
  GI50: > 100 µM (inactive)
[29]
  GI50: > 100 µM (inactive)
[30]
  GI50: > 100 µM (inactive)
[31]
  GI50: > 100 µM (inactive)
[32]
  GI50: > 100 µM (inactive)
[33]
  GI50: > 100 µM (inactive)
[34]
  GI50: > 100 µM (inactive)
[35]
  GI50: > 100 µM (inactive)
[36]
  GI50: > 100 µM (inactive)
[37]
  GI50: > 100 µM (inactive)
[38]
  GI50: > 100 µM (inactive)
[39]
  GI50: > 100 µM (inactive)
[40]
  GI50: > 100 µM (inactive)
[41]
  GI50: > 100 µM (inactive)
[42]
  GI50: > 100 µM (inactive)
[43]
  GI50: > 100 µM (inactive)
[44]
  GI50: > 100 µM (inactive)
[45]
  GI50: > 100 µM (inactive)
[46]
  GI50: > 100 µM (inactive)
[47]
  GI50: > 100 µM (inactive)
[48]
  GI50: > 100 µM (inactive)
[49]
  GI50: 85.5 µM (inactive)
[50]
  GI50: > 100 µM (inactive)
[51]
  GI50: > 100 µM (inactive)
[52]
  GI50: > 100 µM (inactive)
[53]
  GI50: > 100 µM (inactive)
[54]
  GI50: > 100 µM (inactive)

## O=c1cc[nH]c2ccc3nn[nH]c3c12
[1]
  GI50: > 100 µM (inactive)
[2]
  GI50: > 100 µM (inactive)
[3]
  GI50: > 100 µM (inactive)
[4]
  GI50: > 100 µM (inactive)
[5]
  GI50: > 100 µM (inactive)
[6]
  GI50: > 100 µM (inactive)
[7]
  GI50: > 100 µM (inactive)
[8]
  GI50: > 100 µM (inactive)
[9]
  GI50: > 100 µM (inactive)
[10]
  GI50: > 100 µM (inactive)
[11]
  GI50: > 100 µM (inactive)
[12]
  GI50: > 100 µM (inactive)
[13]
  GI50: > 100 µM (inactive)
[14]
  GI50: > 100 µM (inactive)
[15]
  GI50: > 100 µM (inactive)
[16]
  GI50: > 100 µM (inactive)
[17]
  GI50: > 100 µM (inactive)
[18]
  GI50: > 100 µM (inactive)
[19]
  GI50: > 100 µM (inactive)
[20]
  GI50: > 100 µM (inactive)
[21]
  GI50: > 100 µM (inactive)
[22]
  GI50: > 100 µM (inactive)
[23]
  GI50: > 100 µM (inactive)
[24]
  GI50: > 100 µM (inactive)
[25]
  GI50: > 100 µM (inactive)
[26]
  GI50: > 100 µM (inactive)
[27]
  GI50: > 100 µM
[28]
  GI50: > 100 µM (inactive)
[29]
  GI50: > 100 µM (inactive)
[30]
  GI50: > 100 µM (inactive)
[31]
  GI50: > 100 µM (inactive)
[32]
  GI50: > 100 µM (inactive)
[33]
  GI50: > 100 µM (inactive)
[34]
  GI50: > 100 µM (inactive)
[35]
  GI50: > 100 µM (inactive)
[36]
  GI50: > 100 µM (inactive)
[37]
  GI50: > 100 µM (inactive)
[38]
  GI50: > 100 µM (inactive)
[39]
  GI50: > 100 µM (inactive)
[40]
  GI50: > 100 µM (inactive)
[41]
  GI50: > 100 µM (inactive)
[42]
  GI50: > 100 µM (inactive)
[43]
  GI50: > 100 µM (inactive)
[44]
  GI50: > 100 µM (inactive)
[45]
  GI50: > 100 µM (inactive)
[46]
  GI50: > 100 µM (inactive)
[47]
  GI50: > 100 µM (inactive)
[48]
  GI50: > 100 µM (inactive)
[49]
  GI50: > 100 µM (inactive)
[50]
  GI50: > 100 µM (inactive)
[51]
  GI50: > 100 µM (inactive)
[52]
  GI50: > 100 µM (inactive)
[53]
  GI50: > 100 µM (inactive)
[54]
  GI50: > 100 µM (inactive)
